Assay results: publication PMC6321475, “Synthesis and Evaluation of the 4-Substituted 2-Hydroxy-5-Iodochalcones and Their 7-Substituted 6-Iodoflavonol Derivatives for Inhibitory Effect on Cholinesterases and β-Secretase” (International Journal of Molecular Sciences, 2018)
Like-named read-outs stand apart in the source and are kept apart here.

Legend:
[1] = biological target: acetylcholinesterase (AChE) (Homo sapiens, UniProt P22303); test: biochemical; type: biochemical
[2] = biological target: butyrylcholinesterase (BChE) (Homo sapiens, UniProt P06276); test: biochemical; type: biochemical
Chain of butyrylcholinesterase (BChE) (P06276 29-602): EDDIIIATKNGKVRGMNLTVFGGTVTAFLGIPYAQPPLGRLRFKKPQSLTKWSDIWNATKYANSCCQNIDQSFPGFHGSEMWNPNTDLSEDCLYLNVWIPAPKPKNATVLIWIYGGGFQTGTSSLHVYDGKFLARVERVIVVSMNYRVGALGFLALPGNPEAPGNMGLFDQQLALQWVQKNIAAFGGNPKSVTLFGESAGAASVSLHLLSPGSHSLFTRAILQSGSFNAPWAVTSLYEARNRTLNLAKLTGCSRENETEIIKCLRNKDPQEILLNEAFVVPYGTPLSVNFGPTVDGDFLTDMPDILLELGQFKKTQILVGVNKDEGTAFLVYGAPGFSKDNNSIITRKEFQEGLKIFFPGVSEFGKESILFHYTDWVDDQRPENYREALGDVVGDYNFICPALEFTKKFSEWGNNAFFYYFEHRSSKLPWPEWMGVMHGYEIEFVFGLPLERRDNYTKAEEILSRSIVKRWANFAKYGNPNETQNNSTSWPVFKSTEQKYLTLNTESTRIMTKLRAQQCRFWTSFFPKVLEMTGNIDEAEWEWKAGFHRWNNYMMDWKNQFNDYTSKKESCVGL

[3] = mean ± SD, three independent experiments

Chain of acetylcholinesterase (AChE) (P22303 32-614): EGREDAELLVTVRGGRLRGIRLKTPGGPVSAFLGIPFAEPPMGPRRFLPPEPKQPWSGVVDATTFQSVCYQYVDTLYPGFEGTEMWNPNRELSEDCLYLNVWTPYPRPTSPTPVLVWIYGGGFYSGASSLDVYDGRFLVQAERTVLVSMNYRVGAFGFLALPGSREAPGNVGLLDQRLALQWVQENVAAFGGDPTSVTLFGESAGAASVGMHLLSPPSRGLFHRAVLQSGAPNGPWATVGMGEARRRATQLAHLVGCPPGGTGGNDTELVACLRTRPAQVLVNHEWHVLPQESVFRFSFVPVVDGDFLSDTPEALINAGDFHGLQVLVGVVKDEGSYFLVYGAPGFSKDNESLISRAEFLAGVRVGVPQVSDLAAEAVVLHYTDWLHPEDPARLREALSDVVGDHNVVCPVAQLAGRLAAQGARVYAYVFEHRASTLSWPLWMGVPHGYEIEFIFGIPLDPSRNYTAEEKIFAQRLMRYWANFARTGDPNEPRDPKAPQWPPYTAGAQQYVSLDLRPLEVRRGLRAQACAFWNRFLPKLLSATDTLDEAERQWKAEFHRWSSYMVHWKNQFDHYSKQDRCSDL

SMILES	IC50 [1] [µM]	SI BChE/AChE [1]	IC50 [2] [µM]	SI AChE/BChE [2]	IC50 [1, 3] [µM]	IC50 [2, 3] [µM]
COc1cc2oc(-c3ccc(F)cc3)c(O)c(=O)c2cc1I [Compound 3n, 2-(4-F.luorophenyl)-3-hydroxy-6-iodo-7-methoxy-4H-chromen-4-one]	6.15 ± 0.01	1.29	7.93 ± 0.06	0.76	–	–
O=c1c(O)c(-c2ccccc2)oc2cc(Br)c(I)cc12 [Compound 3i, 7-Bro.mo-3-hydroxy-6-iodo-2-phenyl-4H-chromen-4-one]	9.96 ± 0.01	0.57	5.76 ± 0.04	1.73	–	–
O=c1c(O)c(-c2ccc(Cl)cc2)oc2cc(Cl)c(I)cc12 [Compound 3g, 7-Chl.oro-2-(4-chlorophenyl)-3-hydroxy-6-iodo-4H-chromen-4-one]	59.1 ± 0.05	0.13	7.69 ± 0.01	7.69	–	–
O=C(/C=C/c1ccccc1)c1cc(I)c(F)cc1O [Compound 2a, (E)-1-(4-Fluoro-2-hydroxy-5-iodophenyl)-3-phenylpropenone]	–	0.72	–	1.38	38.78 ± 0.01	28.06 ± 0.1
COc1ccc(/C=C/C(=O)c2cc(I)c(Br)cc2O)cc1 [Compound 2l, (E)-1-(4-Bromo-2-hydroxy-5-iodophenyl)-3-(4-methoxyphenyl)propenone]	10.51 ± 0.03	1.45	15.25 ± 0.01	0.69	–	–
COc1cc2oc(-c3ccccc3)c(O)c(=O)c2cc1I [Compound 3m, 3-Hyd.roxy-6-iodo-7-methoxy-2-phenyl-4H-chromen-4-one]	9.25 ± 0.09	1.14	10.5 ± 0.02	0.88	–	–
O=c1c(O)c(-c2ccc(F)cc2)oc2cc(Br)c(I)cc12 [Compound 3j, 7-Bro.mo-2-(4-fluorophenyl)-3-hydroxy-6-iodo-4H-chromen-4-one]	11.16 ± 0.01	2.42	27.01 ± 0.07	0.41	–	–
O=C(/C=C/c1ccccc1)c1cc(I)c(Cl)cc1O [Compound 2e, (E)-1-(4-Chloro-2-hydroxy-5-iodophenyl)-3-phenylpropenone]	10.64 ± 0.07	2.37	25.2 ± 0.3	–	–	–
COc1ccc(/C=C/C(=O)c2cc(I)c(F)cc2O)cc1 [Compound 2d, (E)-1-(4-Fluoro-2-hydroxy-5-iodophenyl)-3-(4-methoxyphenyl)propenone]	11 ± 0.3	0.78	8.49 ± 0.05	1.29	–	–
O=c1c(O)c(-c2ccc(F)cc2)oc2cc(Cl)c(I)cc12 [Compound 3f, 7-Chl.oro-2-(4-fluorophenyl)-3-hydroxy-6-iodo-4H-chromen-4-one]	38.39 ± 0.02	0.47	18.17 ± 0.1	2.11	–	–
O=C(/C=C/c1ccc(Cl)cc1)c1cc(I)c(Br)cc1O [Compound 2k, (E)-1-(4-Bromo-2-hydroxy-5-iodophenyl)-3-(4-chlorophenyl)propenone]	11.56 ± 0.05	0.90	10.44 ± 0.09	1.11	–	–
COc1cc(O)c(C(=O)/C=C/c2ccc(Cl)cc2)cc1I [Compound 2o, (E)-3-(4-Chlorophenyl)-1-(2-hydroxy-5-iodo-4-methoxyphenyl)prop-2-en-1-one]	–	1.05	–	0.95	11.1 ± 0.12	11.6 ± 0.17
COc1ccc(-c2oc3cc(Cl)c(I)cc3c(=O)c2O)cc1 [Compound 3h, 7-Chl.oro-3-hydroxy-6-iodo-2-(4-methoxyphenyl)-4H-chromen-4-one]	–	0.40	–	2.51	14.33 ± 0.03	5.72 ± 0.01
O=C(/C=C/c1ccccc1)c1cc(I)c(Br)cc1O [Compound 2i, (E)-1-(4-Bromo-2-hydroxy-5-iodophenyl)-3-phenylpropenone]	58.14 ± 0.21	0.24	14.11 ± 0.11	4.12	–	–
